Holding throughout (assay type): cell-based, HIV-1
Test [1] relates to Recombinant wild type HIV strain recIIIB. Put plainly: Antiviral MT4/MTT assay with reference virus recIIIB. To be noted: read-out: Anti-HIV-1 activity IC50 (μM) recIIIB ref (2). Here is the method:
(§1) After titration of the new viruses, the stocks were used for antiviral experiments in the presence of serial dilutions of different HIV inhibitors. Titres of the harvested supematants were determined by limited serial dilution titration of virus in MT4 cells.
(§2) Viruses with a useful titre were used in antiviral experiments. For this purpose, 96-well microtitre plates were filled with 100μl of complete culture medium. Subsequently, stock solutions of compounds were added in 25 μl volumes to series of duplicate wells. HIV- and mock-infected cell samples were included for each drug (or drug combination). Exponentially growing MT4 cells were then transferred to the microtitre plates at a density of 150,000 cells/ml. The cell cultures were then incubated at 37° C. in a humidified atmosphere of 5% CO2. Five days after infection, the viability of the mock- and HIV-infected cells was examined spectrophotometrically by the M1T method (Pauwels, R. et al. J. Virol. Meth. (1988), 20: 309-321) as described in Section 6 below.
(§3) To each well of the microtiter plates, 20 μl of a solution of MTT (7.5 mg/ml in PBS) was added. The plates were further incubated at 37° C. for 1 h. Then, 150 μl of medium was removed without disturbing the MT4 cell clusters containing the formazan crystals. Solubilization of the formazan crystals was achieved by adding 100 μl 5% Triton X-100 in acidified isopropanol (5 ml concentrated HCl per liter solvent). Complete dissolution of the formazan crystals was obtained after the plates had been placed on a plate shaker for 10 min. Finally the absorbances were read at two wavelengths (540 and 690 nm). From these optical density (OD) data, 50% inhibitory (IC50) and 50% cytotoxic (CC50) concentrations were derived.

In test [2] the test system is recombinant virus from patient viral RNA (Example 10, drug-naive patient). Put plainly: Recombinant virus assay (MT4/MTT), drug-naive patient of Example 10. To be noted: for IC50: Human immunodeficiency virus 1, Table 6, Example 10 patient virus. The procedure: (§4) RNA was isolated from 100 μl of plasma according to the method described by Boom, R. et al. (1990, supra), and was reverse transcribed with the GeneAmp reverse transcriptase kit (Perkin Elmer) as described by the manufacturer and using an HIV-1 specific downstream primer (OUT3: 5′-CATTGCTCTCCAATTACTGTGATATTTCTCATC-3′; SEQ ID NO: 1). PCR on reverse transcribed RNA was performed with inner and outer primers as described by Kellam, P. and Larder, B. A. (1994, supra). After chloroform extraction and centrifugation on Centricon 100 columns or centrifugation on anion-exchange spin columns (Quiagen), the isolated PCR product was ready for use in the transfection reactions.
(§5) MT4 cells were subcultured at a density of 250,000 cells/ml before transfection (exponential growth phase). Cells were pelleted and resuspended in phosphate buffered saline (PBS) at a concentration of […]. A 0.8 ml portion (2.5 10E6 cells/ml) was used for each transfection. Transfection was performed with the Bio-Rad Gene pulser making use of 0.4 cm electrode cuvettes. Cells were electroporated in the presence of […] of linearised pHIVΔRT plasmid and approximately 5 μg of RT PCR product at 250SF and 300 V, followed by a 30-min incubation at room temperature. Subsequently, 10 ml of fresh culture medium was added to the cell suspension and incubation was performed at 37° C. in a humidified atmosphere of 5% CO2.
(§6) During 7 to 10 days following the transfection, cells were monitored for the appearance of cytopathogenic effect (CPE). In the absence thereof, cells were subcultured in different flasks. Subsequently, culture supernatants of transfected cells were used to create a stock of recombinant virus and stored in 1.5 ml aliquots at −70° C.
as §1, §2, §3
A drug-naive HIV-infected patient donated plasma whose susceptibility to a number of RT inhibitors and protease inhibitors was determined according to the protocol set out in Example 1. Recombinant wild type HIV strain recIIIB was used as a reference HIV virus.

In test [3] the test system is recombinant virus from patient viral RNA (Example 11). As to the kind of experiment: Recombinant virus assay (MT4/MTT), patient of Example 11 (therapy history RT and protease inhibitors). The conditions noted are these: for IC50: Human immunodeficiency virus 1, Table 7, Example 11 patient virus. The procedure: as §4, §5, §6, §1, §2, §3
An HIV infected patient with a therapy history including RT and protease inhibitors donated plasma whose susceptibility to a number of RT inhibitors and protease inhibitors was determined according to the protocol set out in Example 1. Recombinant wild type HIV strain recIIIb was used as a reference HIV virus.

For test [4], the system named is recombinant virus from patient viral RNA (Example 12). As to the kind of experiment: Recombinant virus assay (MT4/MTT), patient of Example 12 (therapy history RT and protease inhibitors). To be noted: for IC50: Human immunodeficiency virus 1, Table 8, Example 12 patient virus. Here is the method:
as §4, §5, §6, §1, §2, §3
An HIV infected patient with a therapy history including RT and protease inhibitors donated plasma whose susceptibility to a number of RT inhibitors and protease inhibitors was determined according to the protocol set out in Example 1.

Test [5] relates to recombinant virus from patient viral RNA (Example 5, 3TC resistant HIV strains). As to the kind of experiment: Recombinant virus assay (MT4/MTT), patient of Example 5 (AZT, then AZT+3TC therapy). To be noted: for IC50: Human immunodeficiency virus 1, Table 1, Example 5 patient virus; for ratio (1)/(2): Table 1, patient mean IC50 / recIIIB IC50, Example 5. Here is the method: as §4, §5, §6, §1, §2, §3
An HIV infected patient who received AZT from December 1989 until an undocumented later date, and switched to a combined chemotherapy of AZT+3TC (1:1) from February 1994 until October 1995 donated plasma whose susceptibility to a number of RT inhibitors was determined according to the above described protocol of Example 1. Recombinant wild type HIV strain recIIIB was used in said protocol as a reference HIV virus.

Test [6] relates to recombinant virus from patient viral RNA (Example 7, drug-naive patient). As to the kind of experiment: Recombinant virus assay (MT4/MTT), drug-naive patient of Example 7. To be noted: for IC50: Human immunodeficiency virus 1, Table 3, Example 7 patient virus; for ratio (1)/(2): Table 3, patient mean IC50 / recIIIB IC50, Example 7. Here is the method: as §4, §5, §6, §1, §2, §3
A drug-naive HIV-infected patient donated plasma whose susceptibility to a number of RT inhibitors was determined according to the protocol set out in Example 1. Recombinant wild type HIV strain recIIIB was used as a reference HIV virus.

For test [7], the system named is recombinant virus from patient viral RNA (Example 8). Put plainly: Recombinant virus assay (MT4/MTT), patient of Example 8 (therapy history AZT, 3TC and loviride). To be noted: for IC50: Human immunodeficiency virus 1, Table 4, Example 8 patient virus; for ratio (1)/(2): Table 4, patient mean IC50 / recIIIB IC50, Example 8. Here is the method:
as §4, §5, §6, §1, §2, §3
An HIV-infected patient with a therapy history including AZT, 3TC and loviride donated plasma whose susceptibility to a number of RT inhibitors was determined according to the protocol set out in Example 1. Recombinant wild type HIV strain recIIIB was used as a reference HIV virus.

The test system of test [8] is recombinant virus from patient viral RNA (Example 9). Put plainly: Recombinant virus assay (MT4/MTT), patient of Example 9 (multiple nucleoside analogue RT-inhibitors). The conditions noted are these: for IC50: Human immunodeficiency virus 1, Table 5, Example 9 patient virus; for ratio (1)/(2): Table 5, patient mean IC50 / recIIIB IC50, Example 9. The procedure: as §4, §5, §6, §1, §2, §3
An HIV-infected patient with a therapy history including multiple nucleoside analogue RT-inhibitors donated plasma whose susceptibility to a number of RT inhibitors was determined according to the protocol set out in Example 1. Recombinant wild type HIV strain recIIIB was used as a reference HIV virus.

Setting [9] is: MT4 cells, read-out: Anti-HIV-1 activity IC50 (μM) Exp. 1.
Where [10] appears, read: MT4 cells, read-out: Anti-HIV-1 activity IC50 (μM) Exp. 2.
[11] abbreviates: mean, read-out: Anti-HIV-1 activity IC50 (μM) Mean (1).
The mark [12] stands for this setting: Human immunodeficiency virus 1, Table 1, reference run of Example 5.
[13] abbreviates: Human immunodeficiency virus 1, Table 3, reference run of Example 7.
The mark [14] stands for this setting: Human immunodeficiency virus 1, Table 4, reference run of Example 8.
The mark [15] stands for this setting: Human immunodeficiency virus 1, Table 5, reference run of Example 9.
[16] abbreviates: mean of Exp. 1 and 2, read-out: Anti-HIV-1 activity IC50 (μM) Mean (1).

The text below walks through data of patent US6528251B2, “Method of managing the chemotherapy of patients who are HIV positive based on the phenotypic drug sensitivity of human HIV strains” (Virco N.V., priority 1996, dated 2003).

Each structure is given as a SMILES string. Where two headings read alike, the source gives them in different places.

For orientation: IC50 means the concentration that gives 50% inhibition. Regarding `CC(C)c1nc(CN(C)C(=O)N[C@H](C(=O)N[C@@H](Cc2ccccc2)C[C@H](O)[C@H](Cc2ccccc2)NC(=O)OCc2cncs2)C(C)C)cs1` [ritonavir], the IC50 was determined as 0.033 µM in test [1] (Human immunodeficiency virus 1, Table 6, reference run of Example 10); 0.062 µM in test [1] (Human immunodeficiency virus 1, Table 7, reference run of Example 11); 0.033 µM in test [1] (Human immunodeficiency virus 1, Table 8, reference run of Example 12); 0.022 µM in test [2] (setting [9]); 0.017 µM in test [2] (setting [10]); 0.019 µM in test [2] (setting [11]). The concentration for half-maximal inhibition (IC50) in test [3] (setting [9]) stood at 1.2 µM; in test [3] (setting [10]) it was 1.74 µM; in test [3] (setting [11]) it was 1.47 µM; in test [4] (setting [9]), 1.61 µM; in test [4] (setting [10]), 1.53 µM; in test [4] (setting [11]), 1.57 µM. For the same compound, the “ratio (1)/(2)” value in test [2] (Table 6, patient mean IC50 / recIIIB IC50, Example 10) was determined as 0.6; in test [3] (Table 7, patient mean IC50 / recIIIB IC50, Example 11), 24; in test [4] (Table 8, patient mean IC50 / recIIIB IC50, Example 12), 47. Further, the “susceptibility of the patient's HIV strain (in words)” value in test [3] (Example 11 patient, conclusion from Table 7) is “decreased susceptibilty”; in test [4] (Example 12 patient, conclusion from Table 8) it was “decreased susceptibility”.

`CC(C)=CCN1Cc2c(Cl)ccc3[nH]c(=S)n(c23)C[C@@H]1C` [tivirapine]: the IC50 worked out at 0.01 µM in test [1] (setting [12]); 0.021 µM in test [1] (setting [13]); 0.021 µM in test [1] (setting [14]); 0.042 µM in test [1] (setting [15]); 0.019 µM in test [5] (setting [9]); 0.018 µM in test [5] (setting [10]). The IC50 in test [5] (setting [16]) was 0.019 µM; in test [6] (setting [9]), 0.042 µM; in test [6] (setting [10]), 0.049 µM; in test [6] (setting [11]) it was 0.046 µM; in test [7] (setting [9]) it was 1.63 µM; in test [7] (setting [10]), 1.6 µM. Also, the IC50 is 1.61 µM in test [7] (setting [11]), 0.052 µM in test [8] (setting [9]), 0.043 µM in test [8] (setting [10]) and 0.048 µM in test [8] (setting [11]). Besides, the “ratio (1)/(2)” value in test [5] was determined as 1.5; in test [6], 2; in test [7] it was 78; in test [8] it was 1.

For `CC(=O)c1ccc(C)cc1NC(C(N)=O)c1c(Cl)cccc1Cl` (stereo not drawn) [loviride], the IC50 in test [1] (setting [12]) is 0.05 µM; in test [1] (setting [13]) it was 0.024 µM; in test [1] (setting [14]), 0.037 µM; in test [1] (setting [15]), 0.065 µM; in test [5] (setting [9]) it was 0.1 µM; in test [5] (setting [10]), 0.12 µM. The IC50 in test [5] (setting [16]) is 0.11 µM; in test [6] (setting [9]), 0.035 µM; in test [6] (setting [10]) it was 0.025 µM; in test [6] (setting [11]), 0.03 µM; in test [7] (setting [9]), greater than 100 µM; in test [7] (setting [10]), greater than 100 µM. Besides, the IC50 in test [7] (setting [11]) is greater than 100 µM; in test [8] (setting [9]), 0.064 µM; in test [8] (setting [10]) it was 0.058 µM; in test [8] (setting [11]), 0.061 µM. The “ratio (1)/(2)” value in test [5] is reported as 2; in test [6], 1; in test [7], greater than 2717; in test [8], 0.9.
